From the CheMixHub viscosity set
Several values for one entry are separate records, joined by “and”; a condition that tells them apart may be missing. Equal entries are not always repeated.

Experiment: xn = mol fraction of the nth substance listed
Settings: 101 kPa

CN(c1ccccc1)c1ccccc1 + Oc1ccccc1
Settings	viscosity [mPa·s]
293.25 K, x2 = 0.0915	7.08
293.25 K, x2 = 0.169	7.15
293.25 K, x2 = 0.2877	7.3
293.25 K, x2 = 0.4271	7.64
293.25 K, x2 = 0.5326	7.98
293.25 K, x2 = 0.6464	8.45
293.25 K, x2 = 0.7197	8.85
293.25 K, x2 = 0.7988	9.35
293.25 K, x2 = 0.8785	9.95
293.25 K, x2 = 0.942	10.48
303.15 K, x2 = 0.0926	5.1
303.15 K, x2 = 0.1813	5.13
303.15 K, x2 = 0.328	5.19
303.15 K, x2 = 0.5156	5.42
303.15 K, x2 = 0.6595	5.7
303.15 K, x2 = 0.7615	5.97
303.15 K, x2 = 0.8443	6.26
303.15 K, x2 = 0.9	6.5
303.15 K, x2 = 0.9463	6.73
313.15 K, x2 = 0.0926	3.785
313.15 K, x2 = 0.1813	3.76
313.15 K, x2 = 0.328	3.77
313.15 K, x2 = 0.5156	3.88
313.15 K, x2 = 0.6595	4.02
313.15 K, x2 = 0.7615	4.15
313.15 K, x2 = 0.8443	4.28
313.15 K, x2 = 0.9	4.4
313.15 K, x2 = 0.9463	4.51

CN(c1ccccc1)c1ccccc1 + Oc1ccccc1Cl
viscosity [mPa·s]
Settings	x2 = 0.1862	x2 = 0.3326	x2 = 0.47	x2 = 0.5927	x2 = 0.6593	x2 = 0.7583	x2 = 0.8455	x2 = 0.9249
293.15 K	6.47	5.95	5.53	5.2	5.02	4.79	4.59	4.4
303.15 K	4.635	4.305	4.03	3.805	3.685	3.51	3.36	3.215
313.15 K	3.5	3.25	3.04	2.85	2.75	2.6	2.49	2.39

Cc1cc(C)cc(C)c1 + c1ccccc1
viscosity [mPa·s]
Settings	x1 = 0.0992	x1 = 0.1997	x1 = 0.3013	x1 = 0.4024	x1 = 0.504	x1 = 0.5997	x1 = 0.7035	x1 = 0.7997	x1 = 0.9018
303 K	0.5455	0.5407	0.5421	0.546	0.5511	0.5579	0.5714	0.5833	0.596
313 K	0.4826	0.4807	0.4822	0.4861	0.4905	0.4999	0.5097	0.5201	0.5336
323 K	0.4308	0.4229	0.4325	0.4374	0.439	0.4507	0.4587	0.4681	0.4791

[Cl-].[Cl-].[Cl-].[Cl-].[Sn+4] + c1ccccc1
viscosity
Settings	293.15 K	313.15 K
x2 = 0.5	–	0.5435 mPa·s
x2 = 0.7	0.6136 mPa·s	0.485 mPa·s and 0.4846 mPa·s

NC(=O)c1ccccc1 + c1ccncc1
298.15 K
Settings	viscosity [mPa·s]
x1 = 0.0343	1.055
x1 = 0.08504	1.331
